According to ChEMBL document CHEMBL3885861, “Open TG-GATES”:

Species on record: Rattus norvegicus
Assay: Open TG-GATES - Regimen: Daily Repeat
Assay type: toxicity, organism-based, Sprague-Dawley
Design: regimen Daily Repeat, gender Male, age 6 weeks
Conditions: in vivo, po, 1 mg/kg, route gavage, dose level Low; for APTT / Bas / Eos / Fbg / Hb / Ht / Lym / MCH / MCHC / MCV / Mono / Neu / PT / Plat / RBC / Ret / WBC: tissue Blood; for KIDNEY_L / KIDNEY_R / KIDNEY_TOTAL: tissue Kidney; for LIVER: tissue Liver; for A/G / ALP / ALT / AST / BUN / CRE / Ca / Cl / DBIL / GLC / IP / K / LDH / Na / PL / RALB / TBIL / TC / TG / TP / gamma-GTP: tissue Plasma

In the case of `O=NN(CCCl)C(=O)NC1CCCCC1` [LOMUSTINE], the TERMINAL_BW (72 h, time 3 day) is reported as 228.6 g, the APTT (72 h, time 3 day) is reported as 15.3 s and the Bas (72 h, time 3 day) is reported as 0%. The Eos (72 h, time 3 day) was 0.8%, the Fbg (72 h, time 3 day) was 224.2 mg/dL and the Hb (72 h, time 3 day) was 12.9 g/dL. For the same compound, the Ht (72 h, time 3 day) was 38.5%, the Lym (72 h, time 3 day) was 81.2% and the MCH (72 h, time 3 day) was 21.6 pg. The MCHC (72 h, time 3 day) was 33.4%, the MCV (72 h, time 3 day) was 64.8 fL and the Mono (72 h, time 3 day) was 7.6%. For the same compound, the Neu (72 h, time 3 day) was 10.2%, the PT (72 h, time 3 day) was 11.8 s and the Plat (72 h, time 3 day) was 108.2 x10_4/uL. For the same compound, the RBC (72 h, time 3 day) was 594.4 x10_4/ul, the Ret (72 h, time 3 day) was 8.5% and the WBC (72 h, time 3 day) was 121.5 x10_2/uL. The KIDNEY_L (72 h, time 3 day) was 1.1 g, the KIDNEY_R (72 h, time 3 day) was 1.1 g and the KIDNEY_TOTAL (72 h, time 3 day) was 2.2 g. For the same compound, the LIVER (72 h, time 3 day) was 11.3 g, the A/G (72 h, time 3 day) was 2.2 and the ALP (72 h, time 3 day) was 863 IU/L. The ALT (72 h, time 3 day) was 30 IU/L, the AST (72 h, time 3 day) was 62 IU/L and the BUN (72 h, time 3 day) was 16 mg/dL. It also gave a CRE (72 h, time 3 day) of 0.5 mg/dL, a Ca (72 h, time 3 day) of 11.1 mg/dL and a Cl (72 h, time 3 day) of 105 meq/L. The DBIL (72 h, time 3 day) was 0.022 mg/dL, the GLC (72 h, time 3 day) was 188 mg/dL and the IP (72 h, time 3 day) was 8.1 mg/dL. The K (72 h, time 3 day) was 4.9 meq/L, the LDH (72 h, time 3 day) was 78 IU/L and the Na (72 h, time 3 day) was 138.6 meq/L. It also gave a PL (72 h, time 3 day) of 144 mg/dL, an RALB (72 h, time 3 day) of 3.9 g/dL and a TBIL (72 h, time 3 day) of 0.3 mg/dL. The TC (72 h, time 3 day) was 79.2 mg/dL, the TG (72 h, time 3 day) was 85.8 mg/dL and the TP (72 h, time 3 day) was 5.7 g/dL. The gamma-GTP (72 h, time 3 day) was 1 IU/L, the TERMINAL_BW ([…], time 7 day) was 255.7 g and the TERMINAL_BW ([…], time 14 day) was 313 g. For the same compound, the TERMINAL_BW ([…], time 28 day) was 386.4 g, the APTT ([…], time 7 day) was 16.6 s and the Bas ([…], time 7 day) was 0%. It also gave an Eos ([…], time 7 day) of 0.6%, a Fbg ([…], time 7 day) of 235.2 mg/dL and a Hb ([…], time 7 day) of 13.3 g/dL. It also gave a Ht ([…], time 7 day) of 39.5%, a Lym ([…], time 7 day) of 80% and an MCH ([…], time 7 day) of 21.3 pg. The MCHC ([…], time 7 day) was 33.6%, the MCV ([…], time 7 day) was 63.6 fL and the Mono ([…], time 7 day) was 7.4%. For the same compound, the Neu ([…], time 7 day) was 12.4%, the PT ([…], time 7 day) was 11.7 s and the Plat ([…], time 7 day) was 109.6 x10_4/uL. For the same compound, the RBC ([…], time 7 day) was 621.2 x10_4/ul, the Ret ([…], time 7 day) was 6.3% and the WBC ([…], time 7 day) was 117.4 x10_2/uL. For the same compound, the APTT ([…], time 14 day) was 16.9 s, the Bas ([…], time 14 day) was 0% and the Eos ([…], time 14 day) was 0.6%. For the same compound, the Fbg ([…], time 14 day) was 235 mg/dL, the Hb ([…], time 14 day) was 13.9 g/dL and the Ht ([…], time 14 day) was 41.4%. The Lym ([…], time 14 day) was 83.4%, the MCH ([…], time 14 day) was 20.8 pg and the MCHC ([…], time 14 day) was 33.6%. It also gave an MCV ([…], time 14 day) of 61.9 fL, a Mono ([…], time 14 day) of 4.8% and a Neu ([…], time 14 day) of 11.4%. For the same compound, the PT ([…], time 14 day) was 11.5 s, the Plat ([…], time 14 day) was 119.3 x10_4/uL and the RBC ([…], time 14 day) was 669.6 x10_4/ul. For the same compound, the Ret ([…], time 14 day) was 5.5%, the WBC ([…], time 14 day) was 116.8 x10_2/uL and the APTT ([…], time 28 day) was 16.6 s. The Bas ([…], time 28 day) was 0%, the Eos ([…], time 28 day) was 1.2% and the Fbg ([…], time 28 day) was 225 mg/dL. For the same compound, the Hb ([…], time 28 day) was 15.1 g/dL, the Ht ([…], time 28 day) was 45.4% and the Lym ([…], time 28 day) was 82%. It also gave an MCH ([…], time 28 day) of 19 pg, an MCHC ([…], time 28 day) of 33.3% and an MCV ([…], time 28 day) of 57.1 fL. It also gave a Mono ([…], time 28 day) of 5.4%, a Neu ([…], time 28 day) of 11.8% and a PT ([…], time 28 day) of 11.6 s. It also gave a Plat ([…], time 28 day) of 109.6 x10_4/uL, an RBC ([…], time 28 day) of 797.4 x10_4/ul and a Ret ([…], time 28 day) of 2.6%. It also gave a WBC ([…], time 28 day) of 167.6 x10_2/uL, a KIDNEY_L ([…], time 7 day) of 1.2 g and a KIDNEY_R ([…], time 7 day) of 1.2 g. For the same compound, the KIDNEY_TOTAL ([…], time 7 day) was 2.3 g, the KIDNEY_L ([…], time 14 day) was 1.3 g and the KIDNEY_R ([…], time 14 day) was 1.2 g. It also gave a KIDNEY_TOTAL ([…], time 14 day) of 2.5 g, a KIDNEY_L ([…], time 28 day) of 1.3 g and a KIDNEY_R ([…], time 28 day) of 1.4 g. For the same compound, the KIDNEY_TOTAL ([…], time 28 day) was 2.7 g, the LIVER ([…], time 7 day) was 12.4 g and the LIVER ([…], time 14 day) was 14.7 g. The LIVER ([…], time 28 day) was 16.7 g, the A/G ([…], time 7 day) was 2 and the ALP ([…], time 7 day) was 865.2 IU/L. The ALT ([…], time 7 day) was 35.2 IU/L, the AST ([…], time 7 day) was 61.6 IU/L and the BUN ([…], time 7 day) was 17.6 mg/dL. For the same compound, the CRE ([…], time 7 day) was 0.5 mg/dL, the Ca ([…], time 7 day) was 10.9 mg/dL and the Cl ([…], time 7 day) was 106 meq/L. The DBIL ([…], time 7 day) was 0.018 mg/dL, the GLC ([…], time 7 day) was 195.2 mg/dL and the IP ([…], time 7 day) was 7.5 mg/dL. It also gave a K ([…], time 7 day) of 4.8 meq/L, an LDH ([…], time 7 day) of 87.8 IU/L and a Na ([…], time 7 day) of 139.6 meq/L. It also gave a PL ([…], time 7 day) of 148.2 mg/dL, an RALB ([…], time 7 day) of 3.9 g/dL and a TBIL ([…], time 7 day) of 0.3 mg/dL. It also gave a TC ([…], time 7 day) of 79.2 mg/dL, a TG ([…], time 7 day) of 71.4 mg/dL and a TP ([…], time 7 day) of 5.9 g/dL. For the same compound, the gamma-GTP ([…], time 7 day) was 1.2 IU/L, the A/G ([…], time 14 day) was 2 and the ALP ([…], time 14 day) was 821 IU/L. It also gave an ALT ([…], time 14 day) of 26.2 IU/L, an AST ([…], time 14 day) of 56.8 IU/L and a BUN ([…], time 14 day) of 19.2 mg/dL. For the same compound, the CRE ([…], time 14 day) was 0.5 mg/dL, the Ca ([…], time 14 day) was 11.3 mg/dL and the Cl ([…], time 14 day) was 106.6 meq/L. For the same compound, the DBIL ([…], time 14 day) was 0.01 mg/dL, the GLC ([…], time 14 day) was 184.4 mg/dL and the IP ([…], time 14 day) was 7.4 mg/dL. For the same compound, the K ([…], time 14 day) was 4.8 meq/L, the LDH ([…], time 14 day) was 84.6 IU/L and the Na ([…], time 14 day) was 139.8 meq/L. It also gave a PL ([…], time 14 day) of 175.2 mg/dL, an RALB ([…], time 14 day) of 4 g/dL and a TBIL ([…], time 14 day) of 0.3 mg/dL. The TC ([…], time 14 day) was 83.2 mg/dL, the TG ([…], time 14 day) was 141.4 mg/dL and the TP ([…], time 14 day) was 6.1 g/dL. The gamma-GTP ([…], time 14 day) was 1.8 IU/L, the A/G ([…], time 28 day) was 1.8 and the ALP ([…], time 28 day) was 696.4 IU/L. The ALT ([…], time 28 day) was 52.8 IU/L, the AST ([…], time 28 day) was 103.6 IU/L and the BUN ([…], time 28 day) was 20.4 mg/dL. It also gave a CRE ([…], time 28 day) of 0.4 mg/dL, a Ca ([…], time 28 day) of 10.9 mg/dL and a Cl ([…], time 28 day) of 105.6 meq/L. It also gave a DBIL ([…], time 28 day) of 0.006 mg/dL, a GLC ([…], time 28 day) of 195.2 mg/dL and an IP ([…], time 28 day) of 6.5 mg/dL. The K ([…], time 28 day) was 4.5 meq/L, the LDH ([…], time 28 day) was 172.8 IU/L and the Na ([…], time 28 day) was 139.6 meq/L. The PL ([…], time 28 day) was 165.2 mg/dL, the RALB ([…], time 28 day) was 4.2 g/dL and the TBIL ([…], time 28 day) was 0.3 mg/dL. For the same compound, the TC ([…], time 28 day) was 78.6 mg/dL, the TG ([…], time 28 day) was 139.8 mg/dL and the TP ([…], time 28 day) was 6.5 g/dL. The gamma-GTP ([…], time 28 day) was 1.6 IU/L.
